{"source": "the supplement of paper PMC10307832", "assay_in_all_cases": "relative viability (nuclei count vs DMSO), 5 days (fraction); higher = more cells survive", "key": {"HCC-366": {"system": "HCC-366", "how_it_was_run": "(§1)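 After 5 days of treatment, lung cancer cells in 1536-well plates were fixed and stained in a single step (final 0.05% Triton X-100, 1% formaldehyde, 1 ug/ml Hoechst) and their nuclei counted on 4× images. Treatment had been applied by pin tool the day after seeding as one drug alone or as a fixed anchor-drug dose with five library-drug doses (not always all listed) in √10 steps. Relative viability is the nuclei count of treated wells divided by that of vehicle wells, and values are medians of duplicate plates.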"}, "NCI-H1395": {"system": "NCI-H1395", "how_it_was_run": "as §1"}, "EKVX": {"system": "EKVX", "how_it_was_run": "as §1"}, "NCI-H441": {"system": "NCI-H441", "how_it_was_run": "as §1"}, "BEN": {"system": "BEN", "how_it_was_run": "as §1"}, "NCI-H1563": {"system": "NCI-H1563", "how_it_was_run": "as §1"}, "NCI-H2023": {"system": "NCI-H2023", "how_it_was_run": "as §1"}, "NCI-H1734": {"system": "NCI-H1734", "how_it_was_run": "as §1"}, "NCI-H1437": {"system": "NCI-H1437", "how_it_was_run": "as §1"}, "NCI-H838": {"system": "NCI-H838", "how_it_was_run": "as §1"}, "NCI-H460": {"system": "NCI-H460", "how_it_was_run": "as §1"}, "NCI-H1755": {"system": "NCI-H1755", "how_it_was_run": "as §1"}, "NCI-H2085": {"system": "NCI-H2085", "how_it_was_run": "as §1"}, "CAL-12T": {"system": "CAL-12T", "how_it_was_run": "as §1"}, "NCI-H1975": {"system": "NCI-H1975", "how_it_was_run": "as §1"}, "NCI-H1650": {"system": "NCI-H1650", "how_it_was_run": "as §1"}, "NCI-H1651": {"system": "NCI-H1651", "how_it_was_run": "as §1"}, "LU99A": {"system": "LU99A", "how_it_was_run": "as §1"}, "NCI-H1355": {"system": "NCI-H1355", "how_it_was_run": "as §1"}, "HCC-44": {"system": "HCC-44", "how_it_was_run": "as §1"}, "NCI-H2342": {"system": "NCI-H2342", "how_it_was_run": "as §1"}, "NCI-H358": {"system": "NCI-H358", "how_it_was_run": "as §1"}, "LOU-NH91": {"system": "LOU-NH91", "how_it_was_run": "as §1"}}, "data": [{"smiles": "Oc1nc(-c2ccc(C(F)(F)F)cc2)nc2c1CSCC2", "note": "[XAV939] + N=C(N)NC(=N)NCCc1ccccc1 [Phenformin] (partner 250 µM)", "values": [{"measurement": "relative viability", "setting": "HCC-366; first compound 0.08 µM", "value": 0.638}, {"measurement": "relative viability", "setting": "HCC-366; first compound 0.253 µM", "value": 0.596}, {"measurement": "relative viability", "setting": "HCC-366; first compound 0.8 µM", "value": 0.65}, {"measurement": "relative viability", "setting": "HCC-366; first compound 2.53 µM", "value": 0.634}, {"measurement": "relative viability", "setting": "NCI-H1395; first compound 0.08 µM", "value": 0.429}, {"measurement": "relative viability", "setting": "NCI-H1395; first compound 0.253 µM", "value": 0.443}, {"measurement": "relative viability", "setting": "NCI-H1395; first compound 0.8 µM", "value": 0.438}, {"measurement": "relative viability", "setting": "NCI-H1395; first compound 2.53 µM", "value": 0.462}, {"measurement": "relative viability", "setting": "EKVX; first compound 0.08 µM", "value": 0.219}, {"measurement": "relative viability", "setting": "EKVX; first compound 0.253 µM", "value": 0.225}, {"measurement": "relative viability", "setting": "EKVX; first compound 0.8 µM", "value": 0.213}, {"measurement": "relative viability", "setting": "EKVX; first compound 2.53 µM", "value": 0.221}, {"measurement": "relative viability", "setting": "NCI-H441; first compound 0.08 µM", "value": 0.856}, {"measurement": "relative viability", "setting": "NCI-H441; first compound 0.253 µM", "value": 0.861}, {"measurement": "relative viability", "setting": "NCI-H441; first compound 0.8 µM", "value": 1}, {"measurement": "relative viability", "setting": "NCI-H441; first compound 2.53 µM", "value": 0.851}, {"measurement": "relative viability", "setting": "BEN; first compound 0.08 µM", "value": 0.245}, {"measurement": "relative viability", "setting": "BEN; first compound 0.253 µM", "value": 0.226}, {"measurement": "relative viability", "setting": "BEN; first compound 0.8 µM", "value": 0.264}, {"measurement": "relative viability", "setting": "BEN; first compound 2.53 µM", "value": 0.243}, {"measurement": "relative viability", "setting": "NCI-H1563; first compound 0.08 µM", "value": 0.616}, {"measurement": "relative viability", "setting": "NCI-H1563; first compound 0.253 µM", "value": 0.681}, {"measurement": "relative viability", "setting": "NCI-H1563; first compound 0.8 µM", "value": 0.594}, {"measurement": "relative viability", "setting": "NCI-H1563; first compound 2.53 µM", "value": 0.636}, {"measurement": "relative viability", "setting": "NCI-H2023; first compound 0.08 µM", "value": 0.424}, {"measurement": "relative viability", "setting": "NCI-H2023; first compound 0.253 µM", "value": 0.391}, {"measurement": "relative viability", "setting": "NCI-H2023; first compound 0.8 µM", "value": 0.365}, {"measurement": "relative viability", "setting": "NCI-H2023; first compound 2.53 µM", "value": 0.402}, {"measurement": "relative viability", "setting": "NCI-H1734; first compound 0.08 µM", "value": 0.44}, {"measurement": "relative viability", "setting": "NCI-H1734; first compound 0.253 µM", "value": 0.386}, {"measurement": "relative viability", "setting": "NCI-H1734; first compound 0.8 µM", "value": 0.337}, {"measurement": "relative viability", "setting": "NCI-H1734; first compound 2.53 µM", "value": 0.393}, {"measurement": "relative viability", "setting": "NCI-H1437; first compound 0.08 µM", "value": 0.343}, {"measurement": "relative viability", "setting": "NCI-H1437; first compound 0.253 µM", "value": 0.243}, {"measurement": "relative viability", "setting": "NCI-H1437; first compound 0.8 µM", "value": 0.287}, {"measurement": "relative viability", "setting": "NCI-H1437; first compound 2.53 µM", "value": 0.252}, {"measurement": "relative viability", "setting": "NCI-H838; first compound 0.08 µM", "value": 0.649}, {"measurement": "relative viability", "setting": "NCI-H838; first compound 0.253 µM", "value": 0.557}, {"measurement": "relative viability", "setting": "NCI-H838; first compound 0.8 µM", "value": 0.521}, {"measurement": "relative viability", "setting": "NCI-H838; first compound 2.53 µM", "value": 0.395}, {"measurement": "relative viability", "setting": "NCI-H460; first compound 0.08 µM", "value": 0.526}, {"measurement": "relative viability", "setting": "NCI-H460; first compound 0.253 µM", "value": 0.408}, {"measurement": "relative viability", "setting": "NCI-H460; first compound 0.8 µM", "value": 0.53}, {"measurement": "relative viability", "setting": "NCI-H460; first compound 2.53 µM", "value": 0.502}, {"measurement": "relative viability", "setting": "NCI-H1755; first compound 0.08 µM", "value": 0.621}, {"measurement": "relative viability", "setting": "NCI-H1755; first compound 0.253 µM", "value": 0.543}, {"measurement": "relative viability", "setting": "NCI-H1755; first compound 0.8 µM", "value": 0.614}, {"measurement": "relative viability", "setting": "NCI-H1755; first compound 2.53 µM", "value": 0.563}, {"measurement": "relative viability", "setting": "NCI-H2085; first compound 0.08 µM", "value": 0.741}, {"measurement": "relative viability", "setting": "NCI-H2085; first compound 0.253 µM", "value": 0.686}, {"measurement": "relative viability", "setting": "NCI-H2085; first compound 0.8 µM", "value": 0.737}, {"measurement": "relative viability", "setting": "NCI-H2085; first compound 2.53 µM", "value": 0.653}, {"measurement": "relative viability", "setting": "CAL-12T; first compound 0.08 µM", "value": 0.592}, {"measurement": "relative viability", "setting": "CAL-12T; first compound 0.253 µM", "value": 0.507}, {"measurement": "relative viability", "setting": "CAL-12T; first compound 0.8 µM", "value": 0.46}, {"measurement": "relative viability", "setting": "CAL-12T; first compound 2.53 µM", "value": 0.417}, {"measurement": "relative viability", "setting": "NCI-H1975; first compound 0.08 µM", "value": 0.409}, {"measurement": "relative viability", "setting": "NCI-H1975; first compound 0.253 µM", "value": 0.42}, {"measurement": "relative viability", "setting": "NCI-H1975; first compound 0.8 µM", "value": 0.382}, {"measurement": "relative viability", "setting": "NCI-H1975; first compound 2.53 µM", "value": 0.37}, {"measurement": "relative viability", "setting": "NCI-H1650; first compound 0.08 µM", "value": 0.499}, {"measurement": "relative viability", "setting": "NCI-H1650; first compound 0.253 µM", "value": 0.456}, {"measurement": "relative viability", "setting": "NCI-H1650; first compound 0.8 µM", "value": 0.373}, {"measurement": "relative viability", "setting": "NCI-H1650; first compound 2.53 µM", "value": 0.348}, {"measurement": "relative viability", "setting": "NCI-H1651; first compound 0.08 µM", "value": 0.359}, {"measurement": "relative viability", "setting": "NCI-H1651; first compound 0.253 µM", "value": 0.31}, {"measurement": "relative viability", "setting": "NCI-H1651; first compound 0.8 µM", "value": 0.353}, {"measurement": "relative viability", "setting": "NCI-H1651; first compound 2.53 µM", "value": 0.302}, {"measurement": "relative viability", "setting": "LU99A; first compound 0.08 µM", "value": 0.956}, {"measurement": "relative viability", "setting": "LU99A; first compound 0.253 µM", "value": 0.863}, {"measurement": "relative viability", "setting": "LU99A; first compound 0.8 µM", "value": 0.807}, {"measurement": "relative viability", "setting": "LU99A; first compound 2.53 µM", "value": 0.853}, {"measurement": "relative viability", "setting": "NCI-H1355; first compound 0.08 µM", "value": 0.455}, {"measurement": "relative viability", "setting": "NCI-H1355; first compound 0.253 µM", "value": 0.428}, {"measurement": "relative viability", "setting": "NCI-H1355; first compound 0.8 µM", "value": 0.43}, {"measurement": "relative viability", "setting": "NCI-H1355; first compound 2.53 µM", "value": 0.435}, {"measurement": "relative viability", "setting": "HCC-44; first compound 0.08 µM", "value": 0.239}, {"measurement": "relative viability", "setting": "HCC-44; first compound 0.253 µM", "value": 0.219}, {"measurement": "relative viability", "setting": "HCC-44; first compound 0.8 µM", "value": 0.221}, {"measurement": "relative viability", "setting": "HCC-44; first compound 2.53 µM", "value": 0.259}, {"measurement": "relative viability", "setting": "NCI-H2342; first compound 0.08 µM", "value": 0.555}, {"measurement": "relative viability", "setting": "NCI-H2342; first compound 0.253 µM", "value": 0.518}, {"measurement": "relative viability", "setting": "NCI-H2342; first compound 0.8 µM", "value": 0.552}, {"measurement": "relative viability", "setting": "NCI-H2342; first compound 2.53 µM", "value": 0.451}, {"measurement": "relative viability", "setting": "NCI-H358; first compound 0.08 µM", "value": 0.311}, {"measurement": "relative viability", "setting": "NCI-H358; first compound 0.253 µM", "value": 0.235}, {"measurement": "relative viability", "setting": "NCI-H358; first compound 0.8 µM", "value": 0.311}, {"measurement": "relative viability", "setting": "NCI-H358; first compound 2.53 µM", "value": 0.328}, {"measurement": "relative viability", "setting": "LOU-NH91; first compound 0.08 µM", "value": 0.672}, {"measurement": "relative viability", "setting": "LOU-NH91; first compound 0.253 µM", "value": 0.627}, {"measurement": "relative viability", "setting": "LOU-NH91; first compound 0.8 µM", "value": 0.702}, {"measurement": "relative viability", "setting": "LOU-NH91; first compound 2.53 µM", "value": 0.618}]}]}
